Test results from PubChem BioAssay AID390 (SGCOxCompounds, 2006).

Target: Serine/threonine-protein kinase PAK 5 (Homo sapiens) (UniProt Q9P286)
Experiment: PAK5 binders by thermal shift, biophysical, DSF, SYPRO orange, recombinant protein (AID 390)
Details: at 10 µM, stronger effect = higher value

Serine/threonine-protein kinase PAK 5 (Homo sapiens), sequence (Q9P286 whole entry, looked up): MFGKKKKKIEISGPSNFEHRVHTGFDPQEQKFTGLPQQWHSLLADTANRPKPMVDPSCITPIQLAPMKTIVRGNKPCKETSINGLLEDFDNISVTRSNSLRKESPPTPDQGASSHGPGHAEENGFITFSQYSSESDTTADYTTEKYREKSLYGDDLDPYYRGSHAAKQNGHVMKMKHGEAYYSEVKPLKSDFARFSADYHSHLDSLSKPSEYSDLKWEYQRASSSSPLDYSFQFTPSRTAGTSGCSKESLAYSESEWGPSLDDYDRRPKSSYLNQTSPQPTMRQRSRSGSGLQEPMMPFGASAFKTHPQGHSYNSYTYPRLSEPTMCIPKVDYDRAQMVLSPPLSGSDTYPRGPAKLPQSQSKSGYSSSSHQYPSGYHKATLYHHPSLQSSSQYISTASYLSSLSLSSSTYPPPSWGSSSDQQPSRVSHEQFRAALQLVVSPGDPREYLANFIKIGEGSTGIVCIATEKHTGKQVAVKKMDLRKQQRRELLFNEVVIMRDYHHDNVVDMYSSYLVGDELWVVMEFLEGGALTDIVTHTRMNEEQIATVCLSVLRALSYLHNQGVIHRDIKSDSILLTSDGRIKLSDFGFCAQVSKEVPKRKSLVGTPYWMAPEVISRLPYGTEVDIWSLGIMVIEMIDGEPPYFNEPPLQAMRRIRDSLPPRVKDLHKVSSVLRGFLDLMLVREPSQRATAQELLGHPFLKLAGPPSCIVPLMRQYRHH

Compound	Tm shift
OCC(O)CCO/N=C1/C(c2c(O)[nH]c3ccccc23)=Nc2ccccc21 (stereo not given)	3.37 Celsius
CC(C)c1nn(-c2c(Cl)cccc2Cl)c2nc(Cc3ccc(OCCO)cc3)[nH]c(=O)c12	3.1 Celsius
NC(=O)c1ccc(-c2nc(-c3ccc4c(c3)OCCO4)c(-c3ccccn3)[nH]2)cc1	4.1 Celsius
Cc1cc(Nc2nc(-c3ccccc3)nc3ccccc23)n[nH]1	4.73 Celsius
O=C1NC(=O)c2c1c1c3ccccc3n3c1c1c2c2ccccc2n1[C@@H]1CCC3O1	3.69 Celsius
CC(C)C(CO)Nc1nc(Nc2cccc(Cl)c2)c2ncn(C(C)C)c2n1 (stereo not given)	4.5 Celsius
Nc1nc(Nc2ccc(S(N)(=O)=O)cc2)nn1C(=S)Nc1c(F)cccc1F	5.57 Celsius
O=C1Cc2c([nH]c3ccc(N(O)O)cc23)-c2ccccc2N1	3.9 Celsius
CCn1cnc2c(Nc3cccc(Cl)c3)nc(N[C@@H]3CCCC[C@@H]3N)nc21	6.75 Celsius
CCN(CC)CCNC(=O)c1c(C)[nH]c(/C=C2\C(=O)Nc3ccc(Cl)cc32)c1C	4.47 Celsius
NCCNc1ncc(C(N)=O)c(Nc2cccc(C(F)(F)F)c2)n1	5.9 Celsius
CC(O)(O)C1(O)C[C@@H]2O[C@@]1(C)n1c3ccccc3c3c4c(c5c6ccccc6n2c5c31)C(=O)NC4 (stereo not given in full)	5.05 Celsius
CC(=O)n1c(C2=c3ccccc3=NC2=O)c(O)[nH]c1=S	3.1 Celsius
N#CCCc1ccc2c(c1)-c1[nH]c3ccc(-n4oo4)cc3c1CC(=O)N2	4.05 Celsius
O=C1Cc2c([nH]c3ccc(Br)cc23)-c2ccccc2N1	3.5 Celsius
NS(=O)(=O)c1ccc(Nc2nc(OCC3CCCCC3)c3[nH]cnc3n2)cc1	3.3 Celsius
Cn1cc(/C=C2\C(=O)Nc3ccc(S(N)(=O)=O)cc32)c2ccccc21	4.3 Celsius
O=Nc1c(-c2c(O)[nH]c3cc(Br)ccc23)[nH]c2ccccc12	4.6 Celsius
O=Nc1c(-c2c(O)[nH]c3ccccc23)[nH]c2ccccc12	4.2 Celsius
O=C1NCc2c1c1c3ccccc3[nH]c1c1[nH]c3ccccc3c21	4.4 Celsius
